According to US20220031723A1, “POWDERED FOOD COMPOSITION COMPRISING ERIOCITRIN” (EUROMED, S.A., priority 2020, published 2022):

Columns and labels:
[1] = Occurrence of plasma and urine metabolites in volunteers after consuming lemon or orange extract; format: in vivo, human
From the text: Through a targeted metabolomic strategy, a total of 17 metabolites were tentatively identified (Table 3). No hesperidin or eriocitrin-derived metabolites were detected in any volunteer at baseline. All the identified metabolites were detected at least in one volunteer, independently of the extract consumed, except for the metabolites M9 (eriodictyol sulfoglucuronide) and M11 (hesperetin sulfoglucuronide), which only were detected after consuming lemon and orange extract, respectively (Table 3). These representative EICs illustrate the metabolites identified in urine (F3 fraction) after consuming lemon (FIG. 3A) and orange (FIG. 3B) extracts, and plasma after consuming lemon (FIG. 3C) and orange (FIG. 3D) extracts. From the 17 metabolites, 16 were detected after consuming lemon extract (except M11), and 15 after consuming orange extract (except M9 and M10 in urine, and M9 and M12 in plasma) (Table 3).

[2] = Urinary excretion of quantified metabolites in collected fractions after extract intake; format: in vivo, human; details: mean ± SD; for Metabolite quantified in urine fraction F1: fraction 0 to 4 h; for Metabolite quantified in urine fraction F2: fraction 4 to 8 h; for Metabolite quantified in urine fraction F3: fraction 8 to 10 h; for Metabolite quantified in urine fraction F4: fraction collected at 24 h (10-24 h); for Metabolite quantified in urine, Total F (24 h): sum of fractions F1-F4
Protocol: Table 4 and Table 5 show the urinary excretion of quantified metabolites at the different fractions collected, i.e., 0-4 h (F1), 4-8 h (F2), 8-10 h (F3), and 10-24 h (F4), after extracts intake.

| Occurrence Plasma LE (number of volunteers in whom metabolite was detected) ([1]; plasma, after consuming lemon extract (LE), n = 16 volunteers) | Occurrence Plasma LE (second column so headed; number of volunteers in whom metabolite was detected) ([1]; plasma, fourth occurrence column, probably orange extract (OE), n = 16 volunteers) | Occurrence Urine LE (number of volunteers in whom metabolite was detected) ([1]; urine, after consuming lemon extract (LE), n = 16 volunteers) | Occurrence Urine LE (second column so headed; number of volunteers in whom metabolite was detected) ([1]; urine, third occurrence column, probably orange extract (OE), n = 16 volunteers) | Metabolite quantified in urine fraction F1 ([2]; after consuming lemon extract) | Metabolite quantified in urine fraction F2 ([2]; after consuming lemon extract) | Metabolite quantified in urine fraction F3 ([2]; after consuming lemon extract) | Metabolite quantified in urine fraction F4 ([2]; after consuming lemon extract) | Metabolite quantified in urine, Total F (24 h) ([2]; after consuming lemon extract) | Metabolite quantified in urine fraction F1 ([2]; after consuming orange extract) | Metabolite quantified in urine fraction F2 ([2]; after consuming orange extract) | Metabolite quantified in urine fraction F3 ([2]; after consuming orange extract) | Metabolite quantified in urine fraction F4 ([2]; after consuming orange extract) | Metabolite quantified in urine, Total F (24 h) ([2]; after consuming orange extract) | Occurrence Plasma LE (number of volunteers in whom metabolite was detected) ([1]; human, in vivo) | Occurrence Plasma LE (second column so headed; number of volunteers in whom metabolite was detected) ([1]; human, in vivo) | Occurrence Urine LE (number of volunteers in whom metabolite was detected) ([1]; human, in vivo) | Occurrence Urine LE (second column so headed; number of volunteers in whom metabolite was detected) ([1]; human, in vivo) | Compound |
| --- | --- | --- | --- | --- | --- | --- | --- | --- | --- | --- | --- | --- | --- | --- | --- | --- | --- | --- |
| 16 | 14 | 16 | 16 | 0.8 ± 0.5 μg/mg creatinine | 1.7 ± 2.7 μg/mg creatinine | 1.3 ± 1.5 μg/mg creatinine | 0.4 ± 0.3 μg/mg creatinine | 4.2 ± 5.0 μg/mg creatinine | 0.1 ± 0.1 μg/mg creatinine | 0.3 ± 0.5 μg/mg creatinine | 0.3 ± 0.4 μg/mg creatinine | 0.3 ± 0.5 μg/mg creatinine | 1.0 ± 1.5 μg/mg creatinine |  |  |  |  | O=C1C[C@@H](c2ccc(O[C@@H]3O[C@H](C(=O)O)[C@@H](O)[C@H](O)[C@H]3O)cc2)Oc2cc(O)cc(O)c21 [M5, Naringenin 4'-O-glucuronide] |
|  |  |  |  |  |  |  |  |  |  |  |  |  |  | 6 | 2 | 9 | 5 | O=C1C[C@@H](c2ccc(O)cc2)Oc2cc(O)cc(O)c21 [M15, Naringenin] |
|  |  |  |  | 2.1 ± 2.3 μg/mg creatinine | 10.7 ± 11.3 μg/mg creatinine | 9.2 ± 7.7 μg/mg creatinine | 2.2 ± 2.4 μg/mg creatinine | 24.2 ± 23.7 μg/mg creatinine | 0.5 ± 1.5 μg/mg creatinine | 4.3 ± 11.5 μg/mg creatinine | 3.3 ± 4.2 μg/mg creatinine | 1.8 ± 1.6 μg/mg creatinine | 9.9 ± 18.9 μg/mg creatinine | 16 | 16 | 16 | 16 | COc1ccc(C2CC(=O)c3c(O)cc(O)cc3O2)cc1O[C@@H]1O[C@H](C(=O)O)[C@@H](O)[C@H](O)[C@H]1O (stereo partly shown) [M8, Hesperetin 3'-O-glucuronide] |
|  |  |  |  | 4.6 ± 5.0 μg/mg creatinine | 14.6 ± 17.3 μg/mg creatinine | 11.9 ± 12.6 μg/mg creatinine | 1.5 ± 1.5 μg/mg creatinine | 32.6 ± 36.5 μg/mg creatinine | 0.02 ± 0.01 μg/mg creatinine | 0.1 ± 0.1 μg/mg creatinine | 0.2 ± 0.4 μg/mg creatinine | 0.3 ± 0.4 μg/mg creatinine | 0.6 ± 0.9 μg/mg creatinine | 16 | 10 | 16 | 12 | Eriodictyol sulfate [M13] |
|  |  |  |  |  |  |  |  |  |  |  |  |  |  | 0 | 8 | 0 | 7 | Hesperetin sulfoglucuronide [M11] |
|  |  |  |  | 13.9 ± 16.2 μg/mg creatinine | 48.1 ± 90.0 μg/mg creatinine | 37.2 ± 56.9 μg/mg creatinine | 6.8 ± 8.0 μg/mg creatinine | 106 ± 171 μg/mg creatinine |  |  |  |  |  | 16 | 3 | 16 | 3 | Homoeriodictyol glucuronide [M6] |
|  |  |  |  |  |  |  |  |  |  |  |  |  |  | 15 | 0 | 5 | 0 | Eriodictyol sulfoglucuronide [M9] |
|  |  |  |  | 3.8 ± 3.2 μg/mg creatinine | 4.0 ± 5.5 μg/mg creatinine | 3.6 ± 4.1 μg/mg creatinine | 0.5 ± 0.4 μg/mg creatinine | 9.6 ± 11.3 μg/mg creatinine |  |  |  |  |  | 16 | 3 | 16 | 0 | Homoeriodictyol sulfate [M10] |
|  |  |  |  | 1.0 ± 0.7 μg/mg creatinine | 2.6 ± 4.0 μg/mg creatinine | 1.7 ± 1.9 μg/mg creatinine | 0.3 ± 0.3 μg/mg creatinine | 5.7 ± 6.9 μg/mg creatinine | 0.1 ± 0.1 μg/mg creatinine | 0.2 ± 0.6 μg/mg creatinine | 0.2 ± 0.2 μg/mg creatinine | 0.2 ± 0.3 μg/mg creatinine | 0.7 ± 1.5 μg/mg creatinine | 16 | 14 | 16 | 16 | O=C1C[C@@H](c2ccc(O)cc2)Oc2cc(O[C@@H]3O[C@H](C(=O)O)[C@@H](O)[C@H](O)[C@H]3O)cc(O)c21 [M3, Naringenin 7-O-glucuronide] |
|  |  |  |  | 1.2 ± 1.4 μg/mg creatinine | 4.0 ± 4.7 μg/mg creatinine | 2.7 ± 2.5 μg/mg creatinine | 0.6 ± 0.6 μg/mg creatinine | 8.5 ± 9.2 μg/mg creatinine | 0.2 ± 0.6 μg/mg creatinine | 2.1 ± 5.7 μg/mg creatinine | 2.2 ± 3.6 μg/mg creatinine | 1.1 ± 3.3 μg/mg creatinine | 5.6 ± 13.2 μg/mg creatinine | 16 | 16 | 16 | 16 | COc1ccc([C@@H]2CC(=O)c3c(O)cc(O[C@@H]4O[C@H](C(=O)O)[C@@H](O)[C@H](O)[C@H]4O)cc3O2)cc1O [M7, Hesperetin 7-O-glucuronide] |
|  |  |  |  |  |  |  |  |  |  |  |  |  |  | 15 | 1 | 12 | 1 | COc1cc([C@@H]2CC(=O)c3c(O)cc(O)cc3O2)ccc1O [M16, Homoeriodictyol] |
|  |  |  |  |  |  |  |  |  |  |  |  |  |  | 16 | 0 | 14 | 4 | O=C1C[C@@H](c2ccc(O)c(O)c2)Oc2cc(O)cc(O)c21 [M12, Eriodictyol] |
|  |  |  |  |  |  |  |  |  |  |  |  |  |  | 8 | 3 | 5 | 8 | COc1ccc([C@@H]2CC(=O)c3c(O)cc(O)cc3O2)cc1O [M17, Hesperetin] |
